Reference: patent US20070141641A1, “Compositions & methods for reformulating biological membranes for arrays” (priority 2003, published 2007)

How the values were obtained:
[1] = target: T1, muscarinic receptor subtype 1 (M1) (Homo sapiens, UniProt P11229); assay: GPCR membrane microarray, labeled-ligand cocktail binding with or without telenzepine, M1 microspots; details: 1 μM telenzepin; cocktail with 2 nM Cy3-B-telenzepine; FIG. 1B
T1 sequence (P11229 1-460): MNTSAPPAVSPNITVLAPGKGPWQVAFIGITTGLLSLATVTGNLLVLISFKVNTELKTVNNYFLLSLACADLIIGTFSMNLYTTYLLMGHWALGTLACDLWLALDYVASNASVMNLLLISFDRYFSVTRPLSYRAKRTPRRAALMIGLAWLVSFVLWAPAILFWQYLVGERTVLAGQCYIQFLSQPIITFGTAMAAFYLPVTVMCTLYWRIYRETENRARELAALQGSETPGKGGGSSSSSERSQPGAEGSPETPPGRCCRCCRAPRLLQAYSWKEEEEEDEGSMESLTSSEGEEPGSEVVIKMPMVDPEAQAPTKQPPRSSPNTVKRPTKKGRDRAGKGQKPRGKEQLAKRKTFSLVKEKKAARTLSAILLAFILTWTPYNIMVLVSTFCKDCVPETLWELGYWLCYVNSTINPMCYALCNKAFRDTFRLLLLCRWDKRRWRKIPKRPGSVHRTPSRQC
Text: (§1) FIG. 1A and FIG. 1B are false-color fluorescence images of two membrane microarrays made using six different GPCR-membrane preparations (from left to right, they are HEK cell membrane as control, muscarinic receptor subtype 1 (M1), motilin receptor (MOTR), neurotensin receptor subtype 1 (NTR1), opioid receptor like subtype 1 (ORL1) and delta 2 opioid receptor (OP1)).
(§2) FIGS. 1A & 1B are false-color fluorescence image of a membrane microarray made using six different GPCR-membrane preparations. The images, in Cy5 to Cy3 ratio, are taken after the array is assayed with a binding buffered solution containing a mixture or cocktail solution of labeled ligands. […] FIGS. 1A and 1B are, respectively, in the absence and presence of 1 μM telenzepin. Before array fabrication, all receptor membranes obtained from commercial vendors are re-formulated using a standardized ink containing: ˜20 mM Tris-HCl, pH 7.4, ˜10 mM MgCl2, ˜10% sucrose, 5% glycerol, 0.5% BSA, total membrane proteins in the range of 1 to 3 mg/ml.

[2] = test system: MOTR, NTR1, ORL1, OP1 receptor microspots; assay: GPCR membrane microarray, labeled-ligand cocktail binding with or without telenzepine, other receptor microspots; details: 1 μM telenzepin, FIG. 1B
Text: as §1, §2

inhibition of labeled ligand binding to other receptor microspots [2]: not any other receptor microspots
Structure (SMILES): Cc1scc2c1N(C(=O)CN1CCN(C)CC1)c1ccccc1NC2=O [telenzepine]
inhibition of labeled ligand binding to M1 microspots [1]: specifically inhibits the binding of labeled ligand to M1 microspots
